According to publication PMC8653149, “Cyclic Analogs of Desferrioxamine E Siderophore for ^68Ga Nuclear Imaging: Coordination Chemistry and Biological Activity in Staphylococcus aureus” (Inorganic Chemistry, 2021):
Entries after “also recorded” stand apart in the source; their conditions may differ. Read-outs that look alike come from different tables or passages of the source. Marks after values point to notes of the source that are not given here.

Key:
[1] = Water solubility of the ligands; format: physicochemical; conditions: H2O and H2O/DMSO 70/30 w/w mixture; concentrations used in assays
Procedure: Elaborated solution thermodynamic studies combining several methods were performed in order to investigate those properties. Five FOXE analogs were water soluble in at least 1 × 10^–3 M concentration. […] Major results of physicochemical analysis for analogs characterized by most desirable properties are summarized below.

[2] = Distribution coefficient (logD) of ^68Ga-labeled ligands between octanol and PBS
[3] = cited from earlier work
[4] = cited from earlier work; remark: listed apart in the source
[5] = Ga(III) complex stability constants by Fe(III)–Ga(III) metal–metal competition, potentiometric and UV–vis pH-metric titrations; format: physicochemical
Text: The next step was to determine the coordination specificity of investigated ligands toward Ga(III) ions. This is a somewhat challenging task because it requires indirect methods since the investigated complexes started to form in a very acidic environment, where potentiometric measurements were not accurate owing to the error of the glass electrode,[55],[56] and gallium is spectroscopically silent in UV–vis. To bypass this inconvenience, we implemented metal–metal competition assays. After addition of a significant molar excess of Ga(III), the LMCT band of Fe(III)-FOXE analog complexes was almost fully silenced as Ga(III) replaced Fe(III) in its complexes (Figure S5). By implementing those spectral changes, we were able to calculate the stability constants of the Ga(III)-FOXE analog species present below or around pH 2, [GaHL]^+ (Table S8). Stability constants for the [GaL] species, present above pH 2, could be determined by potentiometric titrations for Ga(III)-FOX 2-2, 2-3, 2-4, and 3-5, with logβ of [GaHL]^+ fixed in the calculations (Table S8). For Ga(III)-FOX 2-5, we could not observe any deprotonation step using this methodology. To confirm this behavior, UV–vis titration of the Ga(III)-FOX 2-5 analog complex was performed in the 200–300 nm spectral range (Figure S6) corresponding to the hydroxamate groups’ protonation state.[57]−[59] […] Above pH 4, there were no significant changes in maxima localization or absorbance intensity. Above pH 9, absorbance started to rise again, which indicated complex dissociation. […] Overall, the data indicated a decreased stability of [GaL] species when decreasing or increasing the ring size of Ga(III)-FOX 2-5, as reflected by pKNHOH (Table S8). Implementing this full coordination specification of Ga(III)-FOX complexes, we were able to calculate speciation plots which are presented in Figure 1 for the most efficient analogs FOX 2-4 and FOX 2-5, given here as examples, and in Figure S7 for others.
Proposed biomimetic analogs of cyclic siderophore FOXE bind Fe(III) ions starting from pH around 0, and the complexation is essentially complete far below or around pH of 2. Therefore, the stability constants of the first species formed in solution were determined from the spectrophotometric pH-dependent batch titrations carried out in the pH range of around 0.1–2 (Figure S3), by following the changes in the intense LMCT band of the metal complex. These values were further used as constant values in spectrophotometric or potentiometric titrations carried out in the pH range from 2 to 11 (Figure S3) to get the overall stability constants, logβFeL (Table S5). Since Ga(III)-FOX complexes present similar coordination properties, the first species start to form below pH 2 as well. However, in this case, we have used indirect methods to determine stability constants for Ga(III)-FOXE analogs and the Ga(III) complex with native FOXE, as Ga(III) complexes are spectroscopically silent in the UV–vis region. Metal–metal competition titrations were carried out at pH 1.6 for FOX 2-5 and FOX 2-4 and at pH 2 for the rest of the analogs and the native compound. The intense LMCT band of the Fe(III) complex was silenced after addition of a fixed volume of Ga(III) ions (Figure S5).
Potentiometric titrations were performed using an automatic titrator system Titrando 905 (Metrohm) equipped with a 800 Dosino dosing unit and a microburet with a volume of 2 mL. A combined glass electrode was calibrated each day for hydrogen ion concentration by 0.1 M HClO4 with CO2-free 0.1 M NaOH solutions. A stream of high purity grade argon, presaturated with water vapor, passed over the surface of the solution cell, filled with 3 mL of the studied solution. For each system, a minimum of four independent titrations was performed. […]

[6] = design: method as in Ref 3 (supplement); conditions: ref Ref 3 (supplement); cited from earlier work
[7] = design: method as in PMID 11673947; conditions: cited from earlier work

O=C1CCCCCCN(O)C(=O)CCNC(=O)CCCCCCN(O)C(=O)CCNC(=O)CCCCCCN(O)C(=O)CCN1 [FOX 2-6]
solubility [1]: not water soluble in concentrations used during our assays; also recorded: not soluble in H2O nor in a H2O/DMSO 70/30 w/w mixture
logD at 20 min [2]: -0.58

transferrin: strong iron-binding ligand present in living organisms, literature comparator for pM
pGa(III) [3]: 20.3 ^i
pFe(III) [4]: 25.6 ^h

CC(=O)N(O)CCCCCNC(=O)CCC(=O)N(O)CCCCCNC(=O)CCC(=O)N(O)CCCCCN [DFOB]
logβGa(III)L [3]: 27.56 ^g
pGa(III) [3]: 21.6 ^g
logβFe(III)L [4]: 31.10 ^g
pFe(III) [4]: 26.3 ^f

O=C1CCC(=O)N(O)CCCCCNC(=O)CCC(=O)N(O)CCCCCNC(=O)CCC(=O)N(O)CCCCCN1 [FOXE, desferrioxamine E]
logβ[GaL] ([5]; UV-Vis (metal–metal competition) titrations, [L] = 1·10^-4 M, M:L 1:1, T = 25°C, I = 0.1 M NaClO4): 29.79 (1)
pGa(III) ([5]; calculated, pH 7.4): 25.2
logβGa(III)L ([5]; potentiometric [L] = 1 × 10^–3 M and UV–vis 5 × 10^–5 M, M:L 1:1, T = 25 °C, I = 0.1 M NaClO4): 29.79(1)
protonation constant logβ, H2L + H+ ↔ H3L [6]: 27.94
protonation constant logβ, HL + H+ ↔ H2L [6]: 19.31
protonation constant logβ, L + H+ ↔ HL [6]: 9.89
E1/2 vs NHE [7]: –477 ^d mv
logβFe(II) [7]: 12.1 ^d
pFe(III) [4]: 27.3 ^c
